Laboratory results reported in patent publication US20110245284A1, “Alkoxy- and Alkylthio-Substituted Anilinopyrimidines” (Bayer CropScience AG, priority 2008, published 2011).

Key:
[1] = tested on: Leptosphaeria nodorum; experiment: Leptosphaeria nodorum test (wheat) / protective; type: in vivo; conditions: Parastagonospora nodorum, active compound concentration 500 ppm, evaluation 7-9 days after inoculation, read-out: efficacy
Method: Thereafter, the plants are placed in a greenhouse at 90% relative atmospheric humidity and a temperature of 22° C.

[2] = tested on: Pyricularia oryzae; experiment: whole plant or invertebrate; type: in vivo; conditions: 120 h, read-out: efficacy
[3] = tested on: Rhizoctonia solani; experiment: Rhizoctonia test (rice) / protective; type: in vivo; conditions: 96 h, active compound concentration 250 ppm, evaluation 4 days after inoculation, read-out: efficacy
[4] = logP by LC-MS on reversed-phase columns (C 18), method [b], acidic range pH 2.7; type: physicochemical; conditions: pH 2.7, log p
Method: (§1) The logP values were determined in accordance with EEC Directive 79/831 Annex V.A8 by HPLC (High Performance Liquid Chromatography) on reversed-phase columns (C 18), using the methods below:
[b] The LC-MS determination in the acidic range is carried out at pH 2.7 using the mobile phases 0.1% aqueous formic acid and acetonitrile (contains 0.1% formic acid), linear gradient from 10% acetonitrile to 95% acetonitrile.

[5] = logP by HPLC on reversed-phase columns (C 18), method [a], acidic range pH 2.3; type: physicochemical
Method: as §1
[a] The determination is carried out in the acidic range at pH 2.3 using the mobile phases 0.1% aqueous phosphoric acid and acetonitrile, linear gradient from 10% acetonitrile to 95% acetonitrile.

[6] = tested on: Sphaerotheca fuliginea; experiment: Sphaerotheca test (cucumber) / protective; type: in vivo; conditions: Podosphaera fuliginea, 168 h, active compound concentration 500 ppm, evaluation 7 days after inoculation, read-out: efficacy
Method: The plants are subsequently placed in a greenhouse at 70% relative atmospheric humidity and a temperature of 23° C.

[7] = logP by LC-MS on reversed-phase columns (C 18), method [c], neutral range pH 7.8; type: physicochemical; conditions: pH 7.8
Method: as §1
[c] The LC-MS determination in the neutral range is carried out at pH 7.8 using the mobile phases 0.001 molar aqueous ammonium bicarbonate solution and acetonitrile, linear gradient from 10% acetonitrile to 95% acetonitrile.

[8] = tested on: Venturia inaequalis; experiment: Venturia test (apple) / protective; type: in vivo; conditions: 240 h, active compound concentration 100 ppm, evaluation 10 days after inoculation, read-out: efficacy
Method: After the spray coating has dried on, the plants are inoculated with an aqueous conidia suspension of the apple scab pathogen Venturia inaequalis and then remain for 1 day in an incubation cabinet at about 20° C. and 100% relative atmospheric humidity.

[9] = tested on: Alternaria solani; experiment: Alternaria test (tomato) / protective; type: in vivo; conditions: 72 h, active compound concentration 100 ppm, evaluation 3 days after inoculation, read-out: efficacy
Method: The plants are then placed in an incubation cabinet at about 20° C. and 100% relative atmospheric humidity.

[10] = tested on: Pyrenophora teres; experiment: Pyrenophora teres test (barley) / protective; type: in vivo; conditions: 192 h, active compound concentration 500 ppm, evaluation 8 days after inoculation, read-out: efficacy
Method: After the spray coating has dried on, the plants are sprayed with a spore suspension of Pyrenophora teres. The plants remain in an incubation cabinet for 48 hours at 20° C. and 100% relative atmospheric humidity.

CCC(C)Sc1cccc(Nc2ncc(Cl)c(NC3CCC3)n2)c1 (stereo not drawn) [Example 6]
pest or weed control at 500 ppm [1]: ≥ 70%
pest or weed control at 250 ppm [2]: ≥ 80%
pest or weed control at 250 ppm [3]: ≥ 80%
chromatographic logP [4]: 4.14

COCc1cccc(Nc2ncc(F)c(NC3CCC3)n2)c1 [Example 8]
chromatographic logP ([5]; pH 2.3, log p): 1.5
pest or weed control at 500 ppm [6]: ≥ 70%
pest or weed control at 500 ppm [1]: ≥ 70%
chromatographic logP [7]: 2.95

CCCSc1cccc(Nc2ncc(Cl)c(NC(C)C)n2)c1 [Example 31, 5-Chloro-N^4-(propan-2-yl)-N^2-[3-(propylsulphanyl)phenyl]pyrimidine-2,4-diamine]
chromatographic logP ([5]; pH 2.3, logP (pH2.3)): 3.27
pest or weed control at 500 ppm [6]: ≥ 70%
pest or weed control at 500 ppm [1]: ≥ 70%
pest or weed control at 250 ppm [3]: ≥ 80%
chromatographic logP [4]: 3.3

CCSCc1cccc(Nc2ncc(Cl)c(NC(C)C)n2)c1 [Example 33]
pest or weed control at 100 ppm [8]: ≥ 70%
pest or weed control at 100 ppm [9]: ≥ 70%
pest or weed control at 500 ppm [6]: ≥ 70%
pest or weed control at 500 ppm [1]: ≥ 70%
pest or weed control at 500 ppm [10]: ≥ 70%
chromatographic logP [4]: 2.61

CCCS(=O)(=O)c1cccc(Nc2ncc(C(F)(F)F)c(NC3CCC3)n2)c1 [Example 34, N^4-Cyclobutyl-N^2-[3-(propylsulphonyl)phenyl]-5-(trifluoromethyl)pyrimidine-2,4-diamine]
chromatographic logP ([5]; pH 2.3, logP (pH2.3)): 3.46
pest or weed control at 500 ppm [6]: ≥ 70%
pest or weed control at 500 ppm [1]: ≥ 70%
pest or weed control at 250 ppm [3]: ≥ 80%
chromatographic logP [4]: 3.46

CCC[S+]([O-])c1cccc(Nc2ncc(C(F)(F)F)c(NC3CCC3)n2)c1 (stereo not drawn) [Example 35]
pest or weed control at 100 ppm [8]: ≥ 70%
pest or weed control at 100 ppm [9]: ≥ 70%
pest or weed control at 500 ppm [6]: ≥ 70%
pest or weed control at 500 ppm [1]: ≥ 70%
chromatographic logP [4]: 2.97

CCS(=O)(=O)C(C)c1cccc(Nc2ncc(C(F)(F)F)c(NC3CCC3)n2)c1 (stereo not drawn) [Example 40, N^4-cyclobutyl-N^2-{3-[1-(ethylsulphonyl)ethyl]phenyl}-5-(trifluoromethyl)pyrimidine-2,4-diamine]
chromatographic logP ([5]; pH 2.3, logP (pH2.3)): 2.89
pest or weed control at 500 ppm [6]: ≥ 70%
pest or weed control at 500 ppm [1]: ≥ 70%
chromatographic logP [4]: 2.89

CC[S+]([O-])C(C)c1cccc(Nc2ncc(C(F)(F)F)c(NC3CCC3)n2)c1 (stereo not drawn) [Example 43, N^4-Cyclobutyl-N^2-{3-[1-(ethylsulphinyl)ethyl]phenyl}-5-(trifluoromethyl)pyrimidine-2,4-diamine]
chromatographic logP ([5]; pH 2.3, logP (pH2.3)): 2.55
pest or weed control at 500 ppm [6]: ≥ 70%
pest or weed control at 500 ppm [1]: ≥ 70%
chromatographic logP [4]: 2.55

CCCSc1cccc(Nc2ncc(Cl)c(NC3CC3C)n2)c1 (stereo not drawn) [Example 63]
pest or weed control at 100 ppm [8]: ≥ 70%
pest or weed control at 100 ppm [9]: ≥ 70%
pest or weed control at 500 ppm [1]: ≥ 70%
chromatographic logP [4]: 3.58

COCc1cccc(Nc2ncc(Cl)c(NC3CC3C)n2)c1 (stereo not drawn) [Example 65]
pest or weed control at 100 ppm [8]: ≥ 70%
pest or weed control at 100 ppm [9]: ≥ 70%
pest or weed control at 500 ppm [1]: ≥ 70%
chromatographic logP [4]: 2.03
chromatographic logP [7]: 3.3

CCOCCOc1cc(Nc2ncc(C(F)(F)F)c(NC3CC3)n2)ccc1C [Example 79]
pest or weed control at 500 ppm [6]: ≥ 70%
pest or weed control at 500 ppm [1]: ≥ 70%
pest or weed control at 250 ppm [2]: ≥ 80%
pest or weed control at 250 ppm [3]: ≥ 80%
chromatographic logP [4]: 3.66
chromatographic logP [7]: 4.15

CCCS(=O)(=O)c1ccc(Nc2ncc(Cl)c(NC3CC3)n2)cc1 [Example 97]
pest or weed control at 500 ppm [1]: ≥ 70%
pest or weed control at 500 ppm [10]: ≥ 70%
pest or weed control at 250 ppm [2]: ≥ 80%
chromatographic logP [4]: 2.42
chromatographic logP [7]: 2.76

CCC[S+]([O-])c1ccc(Nc2ncc(Cl)c(NC3CC3)n2)cc1 (stereo not drawn) [Example 98]
pest or weed control at 500 ppm [6]: ≥ 70%
pest or weed control at 500 ppm [1]: ≥ 70%
pest or weed control at 500 ppm [10]: ≥ 70%
pest or weed control at 250 ppm [2]: ≥ 80%
chromatographic logP [4]: 1.78

CCS(=O)(=O)c1cccc(Nc2ncc(Br)c(NC3CCC3)n2)c1 [Example 111]
pest or weed control at 100 ppm [8]: ≥ 70%
pest or weed control at 100 ppm [9]: ≥ 70%
pest or weed control at 500 ppm [6]: ≥ 70%
pest or weed control at 500 ppm [1]: ≥ 70%
chromatographic logP [4]: 2.36
chromatographic logP [7]: 3.06

CC[S+]([O-])c1cccc(Nc2ncc(Br)c(NC3CCC3)n2)c1 (stereo not drawn) [Example 112]
pest or weed control at 500 ppm [6]: ≥ 70%
pest or weed control at 500 ppm [1]: ≥ 70%
pest or weed control at 500 ppm [10]: ≥ 70%
chromatographic logP [4]: 1.88
chromatographic logP [7]: 2.63

CC[S+]([O-])c1cccc(Nc2ncc(Cl)c(NC3CC3)n2)c1 (stereo not drawn) [Example 114]
chromatographic logP ([5]; pH 2.3, log p): 1.49
pest or weed control at 500 ppm [6]: ≥ 70%
pest or weed control at 500 ppm [1]: ≥ 70%
pest or weed control at 500 ppm [10]: ≥ 70%
chromatographic logP [4]: 1.48
chromatographic logP [7]: 2.11

CCC(c1cccc(Nc2ncc(Cl)c(NC3CC3)n2)c1)S(=O)(=O)CC (stereo not drawn) [Example 120]
pest or weed control at 100 ppm [8]: ≥ 70%
pest or weed control at 100 ppm [9]: ≥ 70%
pest or weed control at 500 ppm [6]: ≥ 70%
pest or weed control at 500 ppm [1]: ≥ 70%
chromatographic logP [4]: 1.94
chromatographic logP [7]: 2.83

CCCC[S+]([O-])c1cccc(Nc2ncc(Cl)c(NC3CC3)n2)c1 (stereo not drawn) [Example 124]
pest or weed control at 500 ppm [6]: ≥ 70%
pest or weed control at 500 ppm [1]: ≥ 70%
pest or weed control at 500 ppm [10]: ≥ 70%
chromatographic logP [4]: 2.13
chromatographic logP [7]: 2.71

CCCCS(=O)(=O)c1cccc(Nc2ncc(Br)c(NC3CC3)n2)c1 [Example 125]
pest or weed control at 100 ppm [8]: ≥ 70%
pest or weed control at 100 ppm [9]: ≥ 70%
pest or weed control at 500 ppm [1]: ≥ 70%
chromatographic logP [4]: 2.81
chromatographic logP [7]: 3.32

CCSC(C)c1cccc(Nc2ncc(Cl)c(NC(C)C)n2)c1 (stereo not drawn) [Example 131]
pest or weed control at 500 ppm [6]: ≥ 70%
pest or weed control at 500 ppm [1]: ≥ 70%
pest or weed control at 500 ppm [10]: ≥ 70%
chromatographic logP [4]: 2.91
chromatographic logP [7]: 4.65

CCC(C)SC(C)c1cccc(Nc2ncc(C(F)(F)F)c(NC3CC3)n2)c1 (stereo not drawn) [Example 132]
pest or weed control at 500 ppm [6]: ≥ 70%
pest or weed control at 500 ppm [1]: ≥ 70%
pest or weed control at 500 ppm [10]: ≥ 70%
chromatographic logP [4]: 5.09
chromatographic logP [7]: 5.38

CCCCS(=O)(=O)c1cccc(Nc2ncc(Br)c(NC3CCC3)n2)c1 [Example 151]
pest or weed control at 500 ppm [1]: ≥ 70%
pest or weed control at 250 ppm [2]: ≥ 80%
pest or weed control at 250 ppm [3]: ≥ 80%
chromatographic logP [4]: 3.24
chromatographic logP [7]: 3.88

CC(C)C[S+]([O-])c1cccc(Nc2ncc(Cl)c(NC3CC3)n2)c1 (stereo not drawn) [Example 162]
pest or weed control at 100 ppm [9]: ≥ 70%
pest or weed control at 500 ppm [1]: ≥ 70%
chromatographic logP [4]: 2.11
chromatographic logP [7]: 2.81

CCCC[S+]([O-])c1cccc(Nc2ncc(Cl)c(NC3CCC3)n2)c1 (stereo not drawn) [Example 171]
pest or weed control at 100 ppm [8]: ≥ 70%
pest or weed control at 100 ppm [9]: ≥ 70%
pest or weed control at 500 ppm [1]: ≥ 70%
chromatographic logP [4]: 2.48
chromatographic logP [7]: 3.31

CCC(C)[S+]([O-])c1cccc(Nc2ncc(Cl)c(NC3CC3)n2)c1 (stereo not drawn) [Example 175]
pest or weed control at 500 ppm [6]: ≥ 70%
pest or weed control at 500 ppm [1]: ≥ 70%
pest or weed control at 500 ppm [10]: ≥ 70%
chromatographic logP [4]: 2.12
chromatographic logP [7]: 2.74

CCOCCSc1cccc(Nc2ncc(C(F)(F)F)c(NC3CC3)n2)c1 [Example 190]
pest or weed control at 500 ppm [6]: ≥ 70%
pest or weed control at 500 ppm [1]: ≥ 70%
pest or weed control at 500 ppm [10]: ≥ 70%
chromatographic logP [4]: 3.87
chromatographic logP [7]: 4.05

COCC(O)c1cccc(Nc2ncc(Cl)c(NC3CC3)n2)c1 (stereo not drawn) [Example 194]
pest or weed control at 500 ppm [6]: ≥ 70%
pest or weed control at 500 ppm [1]: ≥ 70%
pest or weed control at 500 ppm [10]: ≥ 70%
chromatographic logP [4]: 1.26

CCOCCCSc1cccc(Nc2ncc(Cl)c(NC3CC3)n2)c1 [Example 204]
pest or weed control at 500 ppm [1]: ≥ 70%
pest or weed control at 500 ppm [10]: ≥ 70%
chromatographic logP [4]: 3.02
chromatographic logP [7]: 4.22

COCc1cccc(Nc2ncc(Cl)c(NC3CCC3C)n2)c1 (stereo not drawn) [Example 207]
pest or weed control at 500 ppm [1]: ≥ 70%
pest or weed control at 250 ppm [2]: ≥ 80%
pest or weed control at 250 ppm [3]: ≥ 80%
chromatographic logP [4]: 2.44
chromatographic logP [7]: 4

COCCOc1cccc(Nc2ncc(Cl)c(NC3CC3C)n2)c1 (stereo not drawn) [Example 209]
pest or weed control at 500 ppm [1]: ≥ 70%
pest or weed control at 500 ppm [10]: ≥ 70%
